Legend:
[1] = test system: MDA-MB-231 cells; experiment: Cell proliferation inhibitory activity per human breast cancer cell line, MDA-MB-231; format: cell-based; settings: as treatment amount increased, FIG. 10B
Experimental: (§1) To measure cell proliferation, SKBR3, T47D, HCC1428, MDA-MD-453, MDA-MB-231, MDA-MB-468, HCC38, HCC70, and HCC1937 cells were plated in respective 96-well dishes (5×10^3 cells/well). For cell stabilization, these cells were incubated in a cell incubator at 36.5° C. for 24 hours, and then treated with a drug, and the number of live cells was measured using an IncuCyte ZOOM live cell analysis system (Essen Bioscience, Ann Arbor, Mich., USA) at intervals of 4 hours.

[2] = test system: TAMR-MCF-7 cells; experiment: Real-time apoptosis analysis with caspase-3/7 fluorescent substrate; format: cell-based, human; settings: caspase-3/7 selective fluorescent substrate, FIG. 6
Experimental: To measure apoptosis, cells were plated in a 96-well dish (5×10^3 cells/well). The cells were pre-treated with the IncuCyte ZOOM™ 96-well Caspase-3/7 apoptosis assay reagent for 3 hours and treated with a drug, and then the degree of fluorescence expression was measured using an IncuCyte ZOOM™ live cell analysis system (Essen Bioscience, Ann Arbor, Mich., USA) at intervals of 4 hours.

[3] = test system: TAMR-MCF-7 cells; experiment: Cell cycle analysis by flow cytometry; format: cell-based, human; settings: FIG. 4, FIG. 5
Experimental: To measure the cell cycle distribution, cells were plated in a 100 mm dish (5×10^5 cells/well). The cells were fixed with PBS at 4° C., refrigerated in 70% EtOH at 4° C., and cultured for 24 hours. After removing the 70% EtOH, the cells were stained with propidium iodide (PI)/Triton X-100/DNAse-free RNAse A at 37° C. for 15 minutes. 20,000 cells per experimental group were analyzed using an FACS-Calibur™ (BD Biosciences, CA, USA) machine.

[4] = test system: TAMR-MCF-7 cells; experiment: Real-time cell proliferation assay (IncuCyte ZOOM), TAMR-MCF-7; format: cell-based, human; settings: TAMR-MCF-7 tamoxifen-resistant breast cancer cells; FIG. 2, FIG. 3
Experimental: (§2) An MCF-7 cell line was sub-cultured in high glucose Dulbeccos Modified Eagle's Medium (DMEM) containing 10% fetal bovine serum, 50 U/ml of penicillin, and 50 μg/ml of streptomycin in an incubator supplied with 5% CO2 at 37° C. to be used for experiments. A TAMR-MCF-7 cell line was cultured in high glucose Dulbeccos Modified Eagle's Medium (DMEM) containing 10% charcoal-stripped fetal bovine serum, 3 μM 4-OH-tamoxifen (Sigma-Aldrich, Mo., USA), 50 U/ml of penicillin, and 50 μg/ml of streptomycin.
(§3) To measure cell proliferation, cells were plated in a 96-well dish (5×10^3 cells/well). After drug treatment, the number of live cells was measured using an IncuCyte ZOOM live cell analysis system (Essen Bioscience, Ann Arbor, Mich., USA) at intervals of 4 hours.
(§4) Tamoxifen-resistant breast cancer cells (TAMR-MCF-7) and/or control breast cancer cells (MCF-7) were treated with 2,4,6-trihydroxyacetophenone (THA), and then it was confirmed whether Plk1 activity and cell proliferation were inhibited, using the method of Example 1.

[5] = test system: Polo-like kinase 1 (Plk1); experiment: Western blotting and immunocytochemistry of Plk1 downstream signals (cdc25c, cyclin B1) in tamoxifen-resistant breast cancer cells; format: cell-based, human
Experimental: Sodium dodecyl sulfate-polyacrylamide gel electrophoresis (SDS-PAGE) was performed using a gel electrophoresis apparatus (Mighty Small SE250, Hoefer Scientific Instruments, San Francisco). A cell lysate fraction was diluted in a sample dilution buffer [63 mM Tris (pH 6.8), 10% glycerol, 2% SDS, 0.0013% bromophenol blue, and 5% β-mercaptoethanol], and then electrophoresis was performed thereon in an electrode buffer (15 g of Tris, 72 g of […], and 5 g of SDS included in a 1 L solution) using a 8% to 12% gel. The electrophoresed gel was used to transfer proteins to a nitrocellulose membrane at 190 mAmps for 70 minutes in a transfer buffer (25 mM Tris, 192 mM […], and 20% v/v methanol (pH 8.3)) using a transfer electrophoresis apparatus. The nitrocellulose membrane was reacted with a primary antibody, and then reacted with horseradish peroxidase-conjugated goat anti-rabbit IgG and horseradish peroxidase-conjugated goat anti-mouse IgG as secondary antibodies for 6 hours, followed by color development using an ECL detection system (ECL chemiluminescence system, Amersham, Gaithersberg, Mass.).
To measure fluorescence expression, cells were plated in a 6-well dish (5×10^5 cells/well). Fluorescence was conjugated to cdc25c and cyclin B1 antibodies using SiteClick™ Qdot antibody labeling kits (Thermo Scientific, IL, USA), and fluorescence-conjugated cdc25c and cyclin B1 antibodies were treated in a 6-well dish, and then expression was observed through a fluorescence microscope.
as §4

[6] = test system: MCF-7 cells; experiment: Real-time cell proliferation assay (IncuCyte ZOOM), MCF-7; format: cell-based, human; settings: MCF-7 normal (control) breast cancer cells; FIG. 2
Experimental: as §2, §3, §4

[7] = test system: MDA-MD-453 cells; experiment: Cell proliferation inhibitory activity per human breast cancer cell line, MDA-MD-453; format: cell-based; settings: as treatment amount increased, FIG. 10B
Experimental: as §1

[8] = test system: SKBR3 cells; experiment: Cell proliferation inhibitory activity per human breast cancer cell line, SKBR3; format: cell-based; settings: as treatment amount increased, FIG. 10A
Experimental: as §1

[9] = test system: T47D cells; experiment: Cell proliferation inhibitory activity per human breast cancer cell line, T47D; format: cell-based; settings: as treatment amount increased, FIG. 10A
Experimental: as §1

[10] = test system: human breast cancer cell line panel; experiment: THA reactivity according to Plk1 expression differences per human breast cancer cell line; format: cell-based; settings: 11 breast cancer cell lines classified as low, medium, high Plk1 expression; FIGS. 11A and 11B
[11] = test system: TAMR-MCF-7 cells; experiment: Tamoxifen-resistant breast cancer cell xenograft mouse model; format: in vivo, BALB/c-nu mice
Experimental: In all experiments, 6-week-old female BALB/c-nu mice were raised for 1 week at the Research Center for Animal Experiments in the College of Pharmacy of the Seoul National University at a humidity of 55±5% and a temperature of 22±2° C. and under controlled ventilation conditions and adapted to the environment, and then used in the experiments according to randomized block design, and light/dark cycles were adjusted to 12 hours.
Animal experiments were carried out in accordance with the Experimental Animals Ethics Guidelines. TAMR-MCF-7 cells (5×10^6 cells) were transdermally injected into the left mammary gland of nude mice, and tumor sizes were measured using a caliper twice a week. Tumor volume was calculated by the following formula: Tumor volume=length×width^2. Five weeks after cell transplantation, the mice were euthanized using carbon dioxide gas and the tumors were extracted and weighed.
THA was intraperitoneally administered to a tamoxifen-resistant breast cancer cell-transplanted mouse model every day for 2 weeks at a dose of 6 mg/kg based on a dose known to be effective for bile secretion in the liver. Tumor sizes and weights were measured twice a week during the administration period, and after administration was completed, tumors were extracted, and then the extracted tumor tissues were weighed. PCNA, which is a cell proliferative index, and TUNEL, which is an apoptotic index, were evaluated in the tumor tissues by immunohistochemistry staining, and some tissues were pulverized to quantify cdc25c, which is a downstream signal of Plk1, as a Plk1 activity index, and an increase or decrease in cdc25c expression was confirmed by western blotting.
In addition, THA was administered to a tamoxifen-resistant breast cancer cell-transplanted mouse model at a dose of 10 mg/kg, 30 mg/kg, or 100 mg/kg using an oral zonde needle every day for 2 weeks.

[12] = test system: HCC1937 cells; experiment: Cell proliferation inhibitory activity per human breast cancer cell line, HCC1937; format: cell-based; settings: as treatment amount increased, FIG. 10C
Experimental: as §1

[13] = test system: HCC70 cells; experiment: Cell proliferation inhibitory activity per human breast cancer cell line, HCC70; format: cell-based; settings: as treatment amount increased, FIG. 10C
Experimental: as §1

[14] = test system: HCC1428 cells; experiment: Cell proliferation inhibitory activity per human breast cancer cell line, HCC1428; format: cell-based; settings: as treatment amount increased, FIG. 10A
Experimental: as §1

[15] = test system: MDA-MB-468 cells; experiment: Cell proliferation inhibitory activity per human breast cancer cell line, MDA-MB-468; format: cell-based; settings: as treatment amount increased, FIG. 10B
Experimental: as §1

[16] = test system: HCC38 cells; experiment: Cell proliferation inhibitory activity per human breast cancer cell line, HCC38; format: cell-based; settings: as treatment amount increased, FIG. 10C
Experimental: as §1

[17] = tamoxifen-resistant breast cancer cells, western blotting and immunocytochemistry, FIG. 1
[18] = intraperitoneal 6 mg/kg, immunohistochemistry, FIGS. 7D and 7E

Row | Structure (SMILES) | cell proliferation [1] | cell proliferation [7] | cell proliferation [8] | cell proliferation [9] | cell proliferation [12] | cell proliferation [13] | cell proliferation [14] | cell proliferation [15] | cell proliferation [16] | other results
1 | CC(=O)c1c(O)cc(O)cc1O [THA, 2,4,6-trihydroxyacetophenone] | cell proliferation was inhibited | cell proliferation was inhibited | cell proliferation was inhibited | cell proliferation was inhibited | cell proliferation was inhibited | cell proliferation was inhibited | cell proliferation was inhibited | cell proliferation was inhibited | cell proliferation was inhibited | apoptotic index [2]: significantly increased; cell cycle inhibition [3]: S phase arrest; inhibition of cell proliferation [4]: more strongly inhibited cell proliferation; Plk1 inhibitory effect ([5]; concluded from cdc25c decrease and cyclin B1 increase): had a Plk1 inhibitory effect; compensatory cyclin B1 expression [5, 17]: increased compensatory cyclin B1 expression; expression of cdc25c, downstream signal of Plk1 [5, 17]: reduced the expression of cdc25c; inhibition of cell proliferation [6]: inhibited cell proliferation; selectivity according to Plk1 expression (correlation between Plk1 expression and IC50 of each cell line) [10]: selectively acts on breast cancer cells with high Plk1 expression; tumor size ([11]; intraperitoneal 6 mg/kg every day for 2 weeks, compared to control, FIG. 7A): significantly reduced; tumor weight ([11]; intraperitoneal 6 mg/kg every day for 2 weeks, compared to control, FIG. 7C): significantly reduced; body weight of each mouse ([11]; intraperitoneal 6 mg/kg every day for 2 weeks, FIG. 7B): maintained at a similar level; PCNA, cell proliferative index, in tumor tissue [11, 18]: reduced; TUNEL, apoptotic index, in tumor tissue [11, 18]: significantly increased; cdc25c expression in tumor tissue (Plk1 activity index) ([11]; intraperitoneal 6 mg/kg, western blotting, FIG. 7F): significantly inhibited; tumor size ([11]; oral 10 mg/kg, 30 mg/kg, or 100 mg/kg every day for 2 weeks, compared to control, FIG. 7G): significantly reduced; body weight of each mouse ([11]; oral 10 mg/kg, 30 mg/kg, or 100 mg/kg every day for 2 weeks, FIG. 7I): maintained at a similar level
2 | CC[C@@H]1C(=O)N(C)c2cnc(Nc3ccc(C(=O)NC4CCN(C)CC4)cc3OC)nc2N1C1CCCC1 [BI-2536, reference compound] | cell proliferation was inhibited | cell proliferation was inhibited | cell proliferation was inhibited | cell proliferation was inhibited | cell proliferation was inhibited | cell proliferation was inhibited | cell proliferation was inhibited | cell proliferation was inhibited | cell proliferation was inhibited | 
